The results in this text go back to patent US11518763B2 (SCOHIA PHARMA, INC., priority 2018, dated 2022).

The structures appear in SMILES notation.

T1 sequence (Q14145 321-609 limits assumed): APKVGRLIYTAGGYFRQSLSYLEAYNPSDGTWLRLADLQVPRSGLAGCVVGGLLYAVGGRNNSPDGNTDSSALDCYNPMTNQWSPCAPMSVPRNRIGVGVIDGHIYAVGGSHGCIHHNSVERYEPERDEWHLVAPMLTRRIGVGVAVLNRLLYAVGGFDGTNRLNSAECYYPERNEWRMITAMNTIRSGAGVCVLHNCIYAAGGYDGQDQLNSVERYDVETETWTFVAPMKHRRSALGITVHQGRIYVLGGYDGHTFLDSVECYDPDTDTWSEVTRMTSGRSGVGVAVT

The first test concerns the target T1, binding between NRF2 and KEAP1 (biotinylated human KEAP1 protein (Kelch domain), TAMRA-labeled NRF2 peptide) (Homo sapiens, UniProt Q14145).
T1 construct: biotinylated human KEAP1 protein (Kelch domain); biotin (biotinylated)
Put plainly: Measurement of activity of inhibiting NRF2 binding (NRF2-KEAP1 TR-FRET). The conditions noted are these: inhibition rate relative to control at 100 nM test compound; TR-FRET; 60 min at room temperature. The method, then: Test Example 1: Measurement of Activity of Inhibiting NRF2 Binding
The inhibitory activity of test compounds against the binding between NRF2 and KEAP1 was measured by Time Resolved Fluorescence Resonance Energy Transfer (TR-FRET) method. Into a 384 well plate, 2 μL of a compound, 2 μL of 2 nM solution of biotinylated human KEAP1 protein (Kelch domain), 2 μL of 14 nM solution of TAMRA-labeled NRF2 peptide (TAMRA-Abu(4)-VWYTDIRMRDWM-OH), and 2 μL of 2 nM solution of Tb-labeled streptavidin, all solutions diluted with assay buffer (25 mM HEPES, pH7.5, 150 mM NaCl, 0.01% Tween-20), were added. For some wells, the KEAP1 protein was not added to define control wells. The plate was incubated at room temperature for 60 minutes, and time-resolved fluorescence was measured with a plate reader Envision (manufactured by PerkinElmer). The inhibitory activity for each compound at a compound concentration of 100 nM were calculated as a relative activity value by setting the fluorescence intensity of control wells to which the KEAP1 protein was not added as 100% inhibition, and the fluorescence intensity of wells to which no compound was added as 0%.
The measurement results according to the method described above (inhibition rate of signal value relative to control at 100 nM of test compound) are shown in Table 3.
Turning to `Cc1cc2cc(C)c1C(=O)N1CCc3ccc(cc3C1)C(C(C)(C)C(=O)O)c1ccc3c(nnn3CCCOC2)c1C` (stereo not shown) [Example 59, 2-methyl-2-[18,30,32-trimethyl-20-oxo-14-oxa-8,9,10,21-tetrazahexacyclo[19.5.3.2^16,19.1^3,7.0^6,10.0^24,28]dotriaconta-1(27),3(32),4,6,8,16(31),17,19(30),24(28),25-decaen-2-yl]propanoic acid], the “NRF2 binding inhibitory activity (at 100 nM)” value was found to be 100%.

The same test, now with this note: inhibition rate relative to control at 100 nM test compound; TR-FRET; 60 min at room temperature; 0.1 µM.
For `Cc1c2ccc3c1nnn3CCCCCc1ccc(cc1)C(=O)N1CCc3ccc(cc3C1)C2C(C)(C)C(=O)O` (stereo not shown) [Example 63, 2-methyl-2-[32-methyl-20-oxo-8,9,10,21-tetrazahexacyclo [19.5.3.2^16,19.1^3,7.0^6,10.0^24,28]dotriaconta-1(27),3(32),4,6,8,16(31),17,19(30),24(28),25-decaen-2-yl]propanoic acid], the “NRF2 binding inhibitory activity (at 100 nM)” value amounted to 46%.

In the case of `Cc1c2ccc3c1nnn3CCCOCc1ccc(cc1)C(=O)N1CCc3ccc(cc3C1)C2CC(=O)O` (stereo not shown) [Example 26, [32-Methyl-20-oxo-14-oxa-8,9,10,21-tetraazahexacyclo[19.5.3.2^16,19.1^3,7.0^6,10.0^24,28]dotriaconta-1(26),3(32),4,6,8,16,18,24,27,30-decaen-2-yl]acetic acid], the “NRF2 binding inhibitory activity (at 100 nM)” value is 99%.

Regarding `Cc1c2ccc3c1nnn3CCCOCc1ccc(cc1)C(=O)N1CCc3ccc(cc3C1)C2C(C)(C)C(=O)O` (stereo not shown) [Example 56, 2-methyl-2-[32-methyl-20-oxo-14-oxa-8,9,10,21-tetrazahexacyclo[19.5.3.2^16,19.1^3,7.0^6,10.0^24,28]dotriaconta-1(27),3(32),4,6,8,16,18,24(28),25,30-decaen-2-yl]propanoic acid], the “NRF2 binding inhibitory activity (at 100 nM)” value turned out to be 99%.

The test is the same for the next values; noted with them: inhibition rate relative to control at 100 nM test compound; TR-FRET; 60 min at room temperature; read-out: NRF2 binding inhibitory activity (at 100 nM).
Take `Cc1c2ccc3c1nnn3CCCCOc1ccc(cc1)C(=O)N1CCc3ccc(cc3C1)C2CC(=O)O` (racemic) [Example 30, [32-Methyl-20-oxo-15-oxa-8,9,10,21-tetraazahexacyclo[19.5.3.2^16,19.1^3,7.0^6,10.0^24,28]dotriaconta-1(26),3(32),4,6,8,16,18,24,27,30-decaen-2-yl]acetic acid]: the inhibition at 0.1 µM came out at 100%.

`Cc1c2ccc3c1nnn3CCCCCc1ccc(c3c1CC(C)(C)O3)C(=O)N1CCc3ccc(cc3C1)C2CC(=O)O` (racemic) [Example 8, [6,6,33-Trimethyl-2-oxo-5-oxa-1,15,16,17-tetraazaheptacyclo[22.5.3.2^3,9.1^18,22.0^4,8.0^15,19.0^27,31]pentatriaconta-3,8,16,18(33),19,21,24,26,31,34-decaen-23-yl]acetic acid]: the inhibition at 0.1 µM is 100%.

With `Cc1ccc(NC(=O)CC2c3ccc4c(c3)CN(CC4)C(=O)c3ccc(cc3)COCCCn3nnc4c(C)c2ccc43)cn1` (stereo not shown) [Example 42], the inhibition at 0.1 µM was found to be 60%.

Consider `Cc1c2ccc3c1nnn3CCCCc1ccc(cc1)C(=O)N1CCc3ccc(cc3C1)C2CC(=O)O` (racemic) [Example 13, [31-Methyl-19-oxo-8,9,10,20-tetraazahexacyclo[18.5.3.2^15,18.1^3,7.0^6,10.0^23,27]hentriaconta-1(25),3(31),4,6,8,15,17,23,26,29-decaen-2-yl]acetic acid], for which the inhibition at 0.1 µM came out at 99%.

Consider `Cc1ccc(NC(=O)CC2c3ccc4c(c3)CN(CC4)C(=O)c3ccc(cc3)CCCCCn3nnc4c(C)c2ccc43)cn1` (stereo not shown) [Example 38, 2-[32-Methyl-20-oxo-8,9,10,21-tetraazahexacyclo[19.5.3.2^16,19.1^3,7.0^6,10.0^24,28]dotriaconta-1(26),3(32),4,6,8,16,18,24,27,30-decaen-2-yl]-N-(6-methylpyridin-3-yl)acetamide], for which the inhibition at 0.1 µM came out at 79%.

On to `Cc1c2ccc3c1nnn3CCCOCc1ccc(cc1)C(=O)N1CCc3ccc(cc3C1)C2CC(=O)O` (racemic) [Example 16, [32-Methyl-20-oxo-14-oxa-8,9,10,21-tetraazahexacyclo[19.5.3.2^16,19.1^3,7.0^6,10.0^24,28]dotriaconta-1(26),3(32),4,6,8,16,18,24,27,30-decaen-2-yl]acetic acid], for which the inhibition at 0.1 µM is 100%.
